The text below walks through data of a melting point compilation (Tetko et al.; mined from patent text by program, amines drawn as free bases though some values may be those of a salt).

Bounds are passed on as bounds.

Broadly, the melting point is the temperature of the solid-liquid transition.

`Cn1c(=O)c(S(C)=O)c(O)c2ccccc21` (configuration not stated) registered a melting point of 197 to 200 °C.

For the compound `C=CCCC(C#N)(C#N)Cc1ccc(OC(C)=O)cc1`, the melting point turned out to be 80.2 °C.

In the case of `CCN(CC)C(=O)c1cc2c(cn1)[nH]c1ccccc12`, the melting point is 170 °C.

For `CN(CCCCNC(=O)c1ccc2ccccc2c1)C1CCc2ncsc2C1` (configuration not stated), the melting point is 122 °C.

For `CN(c1ccccc1)c1nc(Cl)nc(Cl)n1`, the melting point is 132 °C.

`N#Cc1cc(-c2cnccn2)c[nH]c1=O` returned a melting point of 250 °C.

`NS(=O)(=O)c1ccccc1CN1CCCC1`: the melting point was in the range of 110 to 112 °C.

Turning to `CC(ON=Cc1c(F)cccc1Cl)C(=O)O` (configuration not stated), the melting point lay within 106 to 107 °C.

In turn, `CN1CCN2C(=O)Nc3ccc(Cl)cc3C12c1ccccc1` (configuration not stated) showed a melting point of 270 to 271 °C.

`CC(=O)SCC(Cc1ccccc1)C(=O)NN1CCCCCC1` (configuration not stated) returned a melting point of 126 °C.

Regarding `COc1cc(C=c2[nH]c(=O)c(=Cc3ccc(OCc4ccccc4)cn3)[nH]c2=O)cc(OC)c1`, the melting point was in the range of 237 to 239 °C.

`C[C@@H](NC(=O)c1ccc[nH]1)C(=O)N[C@H]1CC(=O)O[C@@H]1OCc1ccccc1` registered a melting point of 109 to 112 °C.

Consider `Cc1nc(C)c(Cl)c(NCc2ccc(Oc3ccc4ncc([N+](=O)[O-])n4n3)cn2)n1`, for which the melting point was 194 to 198 °C.

For the compound `O=C(c1ccccc1)c1c(O)c2c(C(=O)O)cccc2[nH]c1=O`, the melting point was > 300 °C.

Consider `CC1(C)CC(=C(c2ccc(O)cc2)c2ccc(-c3ccccc3CO)cc2)CC(C)(C)C1`, for which the melting point lay in the range of 171 to 172 °C.

`OC1CSC(Oc2ccc(-c3ccncc3)nc2Cl)C(O)C1O` (configuration not stated) registered a melting point of 186 °C.

For the compound `COc1ccc2[nH]c(SCc3nccc(SCc4ccco4)c3C)nc2c1`, the melting point lay within 106 to 108 °C.

Turning to `Clc1ccc2c(c1)N(c1ncnc3ccc(N4CCOCC4)cc13)CC2`, the melting point fell in the range of 277 to 279 °C.

On to `Cc1ccc(-c2ccc3c(c2)C=C(C(=O)N[C@H]2CC[C@H](CN(C)C4CCN(C(=O)OC(C)(C)C)CC4)CC2)CCO3)cc1`, for which the melting point lay within 146 to 150 °C.

`C[C@@H](O)[C@H]1C(=O)N(CC(=O)OC(C)(C)C)[C@@H]1C(=O)OC(C)(C)C` yielded a melting point of 79 to 81 °C.

As to `COc1ccc(N2CCN(C[C@H]3COc4ccc5nc(C)ccc5c4O3)CC2)cc1`, the melting point lay in the range of 164 to 165 °C.

Turning to `Cc1ccc(OCc2nc3nccnc3c(=O)[nH]2)cc1`, the melting point was 232 to 233 °C.

For the compound `O=C(NCc1ccccc1)c1ccc(Cl)nc1`, the melting point was in the range of 113 to 114 °C.

Consider `O=C1NCCSc2sccc21`, for which the melting point is 157 to 158 °C.

In turn, `CCCCCCCNC(=O)Nc1c(F)cc(F)cc1CCc1ccc(CC(C)(C)C)cc1` returned a melting point of 105 to 107 °C.

Compound `Oc1ccc(Oc2cncnc2)cc1` had a melting point of 158 °C.

On to `OCCC1(S)C2CC3CC(C2)CC1C3` (configuration not stated), for which the melting point is 68 to 70 °C.

The compound `COc1cc(C(=O)N2CCN(C(=O)C3=Cc4cc(O)c(O)cc4CCC3)CC2)cc(OC)c1OC` yielded a melting point of 206 to 207 °C.

Compound `Nc1noc(-c2ccc(CN3CCCCCC3)s2)n1` yielded a melting point of 135 to 136 °C.

As to `CC(=O)NCC1Cc2cccc3cccc1c23` (configuration not stated), the melting point amounted to 145 °C.

As for `CC(C)(C)c1nc2c(N)nc(-c3ccncc3)nc2[nH]1`, the melting point is 272 to 274 °C.

Turning to `Cc1cnc(C(=O)O)c(-c2ccc(Cl)c(C(=O)NCC34CC5CC(CC(C5)C3)C4)c2)c1`, the melting point fell in the range of 125 to 130 °C.

`CCCNC(=O)CCCCCn1c(CCC)nc2c(N)nc3ccccc3c21`: the melting point is 139 to 141 °C.

On to `CC[C@@H](C)[C@H](N)C(=O)N1CC(F)(F)C(F)(F)C1`, for which the melting point was > 250 °C.

In the case of `CN1C(=O)CN=C(N2CCC(C)(C)CC2)c2ccccc21`, the melting point fell in the range of 143 to 145 °C.

The compound `CCOc1ccc(OCc2ccccc2)c(C(=O)OC)n1` displayed a melting point of 45 to 46 °C.

Compound `Cc1nc2cc(-n3cccc3)ccc2s1` came in with a melting point of 91 to 96 °C.
